From article PMC7914897, “Cytotoxic Potential of a-Azepano- and 3-Amino-3,4-SeCo-Triterpenoids” (International Journal of Molecular Sciences, 2021)
Like-named read-outs stand apart in the source and are kept apart here.

Tests used:
EKVX (NSC lung cancer) = experiment: NCI-60 screen (SRB, 48 h); details: Homo sapiens
Renal Cancer subpanel = experiment: NCI-60 screen, subpanel; details: Homo sapiens
HOP-92 (NSC lung cancer) = experiment: NCI-60 screen (SRB, 48 h); details: Homo sapiens
CNS cancer subpanel = experiment: NCI-60 screen, subpanel; details: Homo sapiens
SF-295 (CNS cancer) = experiment: NCI-60 screen (SRB, 48 h); details: Homo sapiens
DU-145 (Prostate cancer) = experiment: NCI-60 screen (SRB, 48 h); details: Homo sapiens
T-47D (Breast cancer) = experiment: NCI-60 screen (SRB, 48 h); details: Homo sapiens, T47D
[1] = test system: NCI-H226 (NSC lung cancer); experiment: NCI-60 screen (SRB, 48 h); details: Homo sapiens
CCRF-CEM (Leukemia) = experiment: NCI-60 screen (SRB, 48 h); details: Homo sapiens
M14 (Melanoma) = experiment: NCI-60 screen (SRB, 48 h); details: Homo sapiens
UO-31 (Renal cancer) = experiment: NCI-60 screen (SRB, 48 h); details: Homo sapiens
SK-OV-3 (Ovarian cancer) = experiment: NCI-60 screen (SRB, 48 h); details: Homo sapiens
CAKI-1 (Renal cancer) = experiment: NCI-60 screen (SRB, 48 h); details: Homo sapiens
MOLT-4 (Leukemia) = experiment: NCI-60 screen (SRB, 48 h); details: Homo sapiens
SNB-75 (CNS cancer) = experiment: NCI-60 screen (SRB, 48 h); details: Homo sapiens
Colon Cancer subpanel = experiment: NCI-60 screen, subpanel; details: Homo sapiens
OVCAR-5 (Ovarian cancer) = experiment: NCI-60 screen (SRB, 48 h); details: Homo sapiens
OVCAR-3 (Ovarian cancer) = experiment: cells; details: Homo sapiens
A498 (Renal cancer) = experiment: NCI-60 screen (SRB, 48 h); details: Homo sapiens
HT29 (Colon cancer) = experiment: NCI-60 screen (SRB, 48 h); details: Homo sapiens
[2] = test system: NCI-H322M (NSC lung cancer); experiment: NCI-60 screen (SRB, 48 h); details: Homo sapiens
COLO 205 (Colon cancer) = experiment: NCI-60 screen (SRB, 48 h); details: Homo sapiens
SK-MEL-28 (Melanoma) = experiment: NCI-60 screen (SRB, 48 h); details: Homo sapiens
[3] = test system: panel of approximately 60 cancer cell lines; experiment: NCI-60 screen (SRB, 48 h), full panel
Ovarian Cancer subpanel = experiment: NCI-60 screen, subpanel; details: Homo sapiens
SW-620 (Colon cancer) = experiment: NCI-60 screen (SRB, 48 h); details: Homo sapiens
HOP-62 (NSC lung cancer) = experiment: NCI-60 screen (SRB, 48 h); details: Homo sapiens

Structure (SMILES): Cc1ccc(S(=O)(=O)OC[C@]23CCC(C)(C)C[C@H]2C2=CC[C@@H]4[C@@]5(C)CCCNC(C)(C)[C@@H]5CC[C@@]4(C)[C@]2(C)CC3)cc1 [Compound 15]
- GI50 (EKVX (NSC lung cancer)): 1.48 µM
- IC (TGI) (EKVX (NSC lung cancer); 48 h, read-out: TGI): 2.96 µM
- IC (TGI) (Renal Cancer subpanel; 48 h, read-out: TGI MG_MID): 5.44 µM
- GI50 (Renal Cancer subpanel; read-out: GI50 MG_MID): 2.13 µM
- CC50 (Renal Cancer subpanel; read-out: LC50 MG_MID): 14.3 µM
- GI50 (HOP-92 (NSC lung cancer); HOP-92): 1.35 µM
- IC (TGI) (HOP-92 (NSC lung cancer); HOP-92, 48 h, read-out: TGI): 2.8 µM
- IC (TGI) (CNS cancer subpanel; 48 h, read-out: TGI MG_MID): 4.11 µM
- GI50 (CNS cancer subpanel; read-out: GI50 MG_MID): 1.78 µM
- CC50 (CNS cancer subpanel; read-out: LC50 MG_MID): 26.5 µM
- GI50 (SF-295 (CNS cancer); SF-295): 1.71 µM
- IC (TGI) (SF-295 (CNS cancer); SF-295, 48 h, read-out: TGI): 3.3 µM
- GI50 (DU-145 (Prostate cancer); DU-145): 1.79 µM
- IC (TGI) (DU-145 (Prostate cancer); DU-145, 48 h, read-out: TGI): 3.37 µM
- CC50 (DU-145 (Prostate cancer); DU-145, read-out: LC50): 6.35 µM
- GI50 (T-47D (Breast cancer)): 1.67 µM
- IC (TGI) (T-47D (Breast cancer); 48 h, read-out: TGI): 3.31 µM
- GI50 ([1]; NCI-H226): 1.71 µM
- IC (TGI) ([1]; NCI-H226, 48 h, read-out: TGI): 3.77 µM
- GI50 (CCRF-CEM (Leukemia)): 1.93 µM
- CC50 (CCRF-CEM (Leukemia); read-out: LC50): > 100 µM
- GI50 (M14 (Melanoma); M14): 1.87 µM
- IC (TGI) (M14 (Melanoma); M14, 48 h, read-out: TGI): 3.58 µM
- GI50 (UO-31 (Renal cancer); UO-31): 1.29 µM
- IC (TGI) (UO-31 (Renal cancer); UO-31, 48 h, read-out: TGI): 2.68 µM
- CC50 (UO-31 (Renal cancer); UO-31, read-out: LC50): 5.58 µM
- GI50 (SK-OV-3 (Ovarian cancer); SK-OV-3): 1.76 µM
- IC (TGI) (SK-OV-3 (Ovarian cancer); SK-OV-3, 48 h, read-out: TGI): 3.26 µM
- CC50 (SK-OV-3 (Ovarian cancer); SK-OV-3, read-out: LC50): 6.03 µM
- GI50 (CAKI-1 (Renal cancer); CAKI-1): 1.45 µM
- IC (TGI) (CAKI-1 (Renal cancer); CAKI-1, 48 h, read-out: TGI): 2.82 µM
- CC50 (CAKI-1 (Renal cancer); CAKI-1, read-out: LC50): 5.46 µM
- GI50 (MOLT-4 (Leukemia); MOLT-4): 1.55 µM
- CC50 (MOLT-4 (Leukemia); MOLT-4, read-out: LC50): > 100 µM
- GI50 (SNB-75 (CNS cancer); SNB-75): 1.48 µM
- IC (TGI) (SNB-75 (CNS cancer); SNB-75, 48 h, read-out: TGI): 2.94 µM
- CC50 (SNB-75 (CNS cancer); SNB-75, read-out: LC50): 5.85 µM
- IC (TGI) (Colon Cancer subpanel; 48 h, read-out: TGI MG_MID): 3.25 µM
- GI50 (Colon Cancer subpanel; read-out: GI50 MG_MID): 1.7 µM
- GI50 (OVCAR-5 (Ovarian cancer); OVCAR-5): 1.61 µM
- IC (TGI) (OVCAR-5 (Ovarian cancer); OVCAR-5, 48 h, read-out: TGI): 3.01 µM
- GI50 (OVCAR-3 (Ovarian cancer); OVCAR-3): 1.84 µM
- IC (TGI) (OVCAR-3 (Ovarian cancer); OVCAR-3, 48 h, read-out: TGI): 3.51 µM
- GI50 (A498 (Renal cancer); A498): 5.99 µM
- IC (TGI) (A498 (Renal cancer); A498, 48 h, read-out: TGI): 21.4 µM
- CC50 (A498 (Renal cancer); A498, read-out: LC50): 57.6 µM
- GI50 (HT29 (Colon cancer); HT-29): 1.64 µM
- IC (TGI) (HT29 (Colon cancer); HT-29, 48 h, read-out: TGI): 3.23 µM
- GI50 [2]: 14.9 µM
- IC (TGI) ([2]; 48 h, read-out: TGI): 4.05 µM
- CC50 ([2]; read-out: LC50): > 100 µM
- GI50 (COLO 205 (Colon cancer); COLO 205): 1.63 µM
- IC (TGI) (COLO 205 (Colon cancer); COLO 205, 48 h, read-out: TGI): 3.19 µM
- GI50 (SK-MEL-28 (Melanoma); SK-MEL-28): 1.84 µM
- IC (TGI) (SK-MEL-28 (Melanoma); SK-MEL-28, 48 h, read-out: TGI): 3.38 µM
- Positive Cytostatic Effect (cell lines with percent growth 0 to 50 / total) ([3]; 1 dose 10 µM): 17/60
- Positive Cytotoxic Effect (cell lines with percent growth < 0 / total) ([3]; 1 dose 10 µM): 14/60
- number of cancer cell lines the compound was active against ([3]; 1 dose 10 µM): 22 cell lines
- activity at 10 µM ([3]; Homo sapiens, 48 h, read-out: Mean Growth, %): 37.2%
- activity at 10 µM ([3]; Homo sapiens, 48 h, read-out: Range of Growth, %): -87.7 to 104%
- IC (TGI) ([3]; Homo sapiens, 48 h, read-out: TGI MG_MID60, average over all cell lines): 3.8 µM
- GI50 ([3]; Homo sapiens, read-out: GI50 MG_MID60): 1.99 µM
- GI50 ([3]; Homo sapiens, read-out: GI50 against all human tumor cell lines): < 15 µM
- GI50 ([3]; Homo sapiens, read-out: GI50 against the most sensitive cell lines): 0.2 to 0.94 µM
- CC50 ([3]; Homo sapiens, read-out: LC50 MG_MID60, average over all cell lines): 18.9 µM
- IC (TGI) (Ovarian Cancer subpanel; 48 h, read-out: TGI MG_MID): 3.35 µM
- GI50 (Ovarian Cancer subpanel; read-out: GI50 MG_MID): 1.74 µM
- CC50 (Ovarian Cancer subpanel; read-out: LC50 MG_MID): 6.03 µM
- GI50 (SW-620 (Colon cancer); SW-620): 1.73 µM
- IC (TGI) (SW-620 (Colon cancer); SW-620, 48 h, read-out: TGI): 3.36 µM
- GI50 (HOP-62 (NSC lung cancer); HOP-62): 1.81 µM
- IC (TGI) (HOP-62 (NSC lung cancer); HOP-62, 48 h, read-out: TGI): 3.56 µM
